Earlier results as cited in article PMC11071479 (bioRxiv, 2024).

Target: T1, MCT4 (Homo sapiens, UniProt O15427)
T1 sequence (O15427 2-465): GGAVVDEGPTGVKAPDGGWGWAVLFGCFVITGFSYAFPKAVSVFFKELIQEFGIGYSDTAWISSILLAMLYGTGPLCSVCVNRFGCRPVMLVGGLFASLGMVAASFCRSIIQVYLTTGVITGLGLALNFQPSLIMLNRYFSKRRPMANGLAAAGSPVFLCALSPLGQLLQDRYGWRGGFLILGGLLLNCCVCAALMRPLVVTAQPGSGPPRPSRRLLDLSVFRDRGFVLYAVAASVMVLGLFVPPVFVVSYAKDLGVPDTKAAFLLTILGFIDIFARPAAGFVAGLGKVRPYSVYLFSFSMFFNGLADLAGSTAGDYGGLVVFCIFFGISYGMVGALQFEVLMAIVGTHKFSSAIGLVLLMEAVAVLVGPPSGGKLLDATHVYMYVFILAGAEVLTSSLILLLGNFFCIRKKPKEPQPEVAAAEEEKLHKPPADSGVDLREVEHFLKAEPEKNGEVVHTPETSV
Assay: MCT4 inhibition IC50 stated without citation
Assay type: cell-based

IC50: ~2 nM
Substance: VB253
